We go through 21 molecules from US8778966B2, “Quinolinone derivatives as PARP and tank inhibitors” (Janssen Pharmaceutica, NV, priority 2007, dated 2014).

This test concerns the target T1, TANK-2 enzyme (Homo sapiens, UniProt Q9H2K2).
T1 construct: made in house
T1 sequence (Q9H2K2 1-1166): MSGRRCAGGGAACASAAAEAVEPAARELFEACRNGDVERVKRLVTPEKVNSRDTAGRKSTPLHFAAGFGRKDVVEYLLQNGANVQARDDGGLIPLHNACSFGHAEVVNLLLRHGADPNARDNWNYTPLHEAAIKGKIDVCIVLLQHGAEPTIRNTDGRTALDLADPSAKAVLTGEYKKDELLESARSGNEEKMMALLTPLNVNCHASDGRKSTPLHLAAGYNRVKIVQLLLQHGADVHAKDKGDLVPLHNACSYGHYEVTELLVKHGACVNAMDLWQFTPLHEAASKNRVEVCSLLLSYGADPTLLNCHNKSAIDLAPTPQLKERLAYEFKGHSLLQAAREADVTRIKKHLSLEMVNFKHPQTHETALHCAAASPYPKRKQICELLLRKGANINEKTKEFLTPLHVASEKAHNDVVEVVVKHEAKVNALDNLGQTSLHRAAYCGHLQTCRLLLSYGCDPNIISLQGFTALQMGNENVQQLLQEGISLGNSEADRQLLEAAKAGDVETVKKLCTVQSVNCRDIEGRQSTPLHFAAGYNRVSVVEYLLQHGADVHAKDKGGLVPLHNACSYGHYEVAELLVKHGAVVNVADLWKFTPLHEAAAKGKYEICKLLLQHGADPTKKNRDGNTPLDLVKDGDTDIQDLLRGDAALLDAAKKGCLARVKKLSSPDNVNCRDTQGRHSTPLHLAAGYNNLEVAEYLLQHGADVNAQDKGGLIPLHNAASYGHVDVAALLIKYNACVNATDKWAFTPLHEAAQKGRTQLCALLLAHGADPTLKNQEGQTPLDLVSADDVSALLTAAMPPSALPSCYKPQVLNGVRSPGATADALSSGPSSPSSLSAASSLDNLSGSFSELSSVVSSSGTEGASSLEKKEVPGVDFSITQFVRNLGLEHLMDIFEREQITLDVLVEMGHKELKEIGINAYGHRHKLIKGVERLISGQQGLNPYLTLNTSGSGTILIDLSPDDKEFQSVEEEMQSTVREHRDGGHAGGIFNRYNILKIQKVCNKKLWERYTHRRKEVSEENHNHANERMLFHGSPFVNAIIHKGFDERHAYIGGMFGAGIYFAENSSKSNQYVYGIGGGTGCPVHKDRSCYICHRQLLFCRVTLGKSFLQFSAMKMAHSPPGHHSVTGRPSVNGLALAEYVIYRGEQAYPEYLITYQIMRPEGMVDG
Nature of the test: In vitro Scintillation Proximity Assay (SPA) for TANK-2 inhibitory activity. The note with it: read-out: in vitro SPA assay TANK-2 pIC50 (converted). In kind it is biochemical. Put shortly: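 Results are pIC50 values, with IC50 interpolated linearly around 50% of blank-subtracted control cpm. They come from a scintillation proximity read of TANK-2 (8 μg/ml) self-modification with [3H]-NAD+/NAD, incubated 120 min at room temperature in pH 7.4 Tris buffer containing MgCl2 and DTT. Compounds were first screened at 10^−5 M.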
In general terms: Scintillation proximity formats need no separation of bound from free tracer.

Regarding `CCc1cc2ccc(C(C)(C#N)Cc3nc4ccccc4n3C)cc2[nH]c1=O` (stereo not drawn) [Compound 338], the IC50 is 501 nM.
For the molecule `CCc1cc2ccc(C(C)(C#N)Cc3cccc(C)n3)cc2[nH]c1=O` (stereo not drawn) [Compound 343], the IC50 is 398 nM.
Next, `CCc1cc2ccc(C(C)(C#N)Cc3cccc(Br)n3)cc2[nH]c1=O` (stereo not drawn) [Compound 344]: 316 nM; `CCc1cc2ccc(C(C)(C#N)Cc3cccc(CO)n3)cc2[nH]c1=O` (stereo not drawn) [Compound 345]: 501 nM; `CCc1cc2ccc(C(C)(C#N)Cc3ccc(OC)nc3)cc2[nH]c1=O` (stereo not drawn) [Compound 352]: 631 nM.
Consider `CCc1cc2ccc(C(C)(C#N)Cc3cccc(OC)n3)cc2[nH]c1=O` (stereo not drawn) [Compound 353], for which the IC50 was 200 nM.
Then `CCc1cc2ccc(C(C)(C#N)Cc3cnc(OC)nc3Cl)cc2[nH]c1=O` (stereo not drawn) [Compound 356], with 79.4 nM; and `CCc1cc2ccc(C(C)(C#N)Cc3cnc(OC)nc3OC)cc2[nH]c1=O` (stereo not drawn) [Compound 357], with 79.4 nM; and `CCc1cc2ccc(C(C)(C#N)Cc3cc(OC)nc(OC)n3)cc2[nH]c1=O` (stereo not drawn) [Compound 358], with 100 nM.
Next, `CCc1cc2ccc(C(C)(C#N)Cc3nc(Cl)cc(N(C)C)n3)cc2[nH]c1=O` (stereo not drawn) [Compound 359]: 100 nM; `CCc1cc2ccc(C(C)(C#N)Cc3nccc(OC)n3)cc2[nH]c1=O` (stereo not drawn) [Compound 360]: 126 nM.
In the case of `CCc1cc2ccc(C(C)(C#N)Cc3cc(OCCOC)nc(C)n3)cc2[nH]c1=O` (stereo not drawn) [Compound 363], the IC50 is 158 nM.
Next, `CCc1cc2ccc(C(C)(C#N)Cc3cc(N(C)C)nc(Cl)n3)cc2[nH]c1=O` (stereo not drawn) [Compound 364]: 100 nM; `CCc1cc2ccc(C(C)(C#N)Cc3cc(OC)nc(C)n3)cc2[nH]c1=O` (stereo not drawn) [Compound 366]: 158 nM; `CCc1cc2ccc(C(C)(C#N)Cc3cc(OCCOC)nc(Cl)n3)cc2[nH]c1=O` (stereo not drawn) [Compound 367]: 158 nM.
Next, `CCc1cc2ccc(C(C)(C#N)Cc3nc(C)cc(C)n3)cc2[nH]c1=O` (stereo not drawn) [Compound 368]: 158 nM; `CCc1cc2ccc(C(C)(C#N)Cc3nccc(OCCOC)n3)cc2[nH]c1=O` (stereo not drawn) [Compound 369]: 631 nM; `CCc1cc2ccc(C(C)(C#N)Cc3nc(Cl)cc(OCCOC)n3)cc2[nH]c1=O` (stereo not drawn) [Compound 370]: 251 nM.
Then `CCc1cc2ccc(C(C)(C#N)Cc3cc(Cl)nc(Cl)c3)cc2[nH]c1=O` (stereo not drawn) [Compound 372], with 126 nM; and `CCc1cc2ccc(C(C)(C#N)Cc3cc(OC)ccn3)cc2[nH]c1=O` (stereo not drawn) [Compound 373], with 501 nM.
As for `CCc1cc2ccc(C(C)(C#N)CC3CCc4ccccc4O3)cc2[nH]c1=O` (stereo not drawn) [Compound 399], the IC50 was 100 nM.
